Molecules are shown by their SMILES.

Usually Ki stands for a measure of affinity in units of concentration, obtained from inhibition or displacement. Read a high Ki as lower affinity.

For experiment [1], the target named is Carbonic anhydrase 6 (Homo sapiens, UniProt P23280).
In experiment [2] the target is Carbonic anhydrase 9 (Homo sapiens, UniProt Q16790).

Chain of Carbonic anhydrase 6 (P23280 whole entry): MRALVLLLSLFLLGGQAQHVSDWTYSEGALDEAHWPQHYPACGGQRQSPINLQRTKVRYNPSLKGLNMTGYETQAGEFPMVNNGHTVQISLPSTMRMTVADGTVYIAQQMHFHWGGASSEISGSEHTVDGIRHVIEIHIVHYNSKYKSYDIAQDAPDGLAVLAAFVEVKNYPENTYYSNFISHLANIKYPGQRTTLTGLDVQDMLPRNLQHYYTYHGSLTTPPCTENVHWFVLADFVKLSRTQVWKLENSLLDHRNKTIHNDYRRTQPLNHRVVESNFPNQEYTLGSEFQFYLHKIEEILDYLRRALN

With `Nc1ccc(S(=O)(=O)NCCc2ccc(S(N)(=O)=O)cc2)cc1`, the Ki in experiment [1] came to 24 nM. This counts as double-digit nanomolar.
Consider `CCN[C@H]1CN(CCCOC)S(=O)(=O)c2sc(S(N)(=O)=O)cc21` [BRINZOLAMIDE], for which, in experiment [1], the affinity corresponds to a Ki of 0.9 nM.
In experiment [1], `Nc1ccc(S(N)(=O)=O)cc1Br` registered a Ki of 4680 nM.
`Nc1nccc(Nc2ccc(S(N)(=O)=O)cc2)n1` had a Ki in experiment [1] of 86 nM.
In turn, `NS(=O)(=O)c1ccc(CCO)cc1` returned a Ki in experiment [1] of 4150 nM.
With `NNc1ccc(S(N)(=O)=O)cc1`, the Ki in experiment [1] came to 1270 nM.
Still for that read-out and setting: the result for `Nc1ccccc1S(N)(=O)=O` reads 772 nM; that for `NS(=O)(=O)c1ccc(S(=O)(=O)Nc2cccc3c(Cl)c[nH]c23)cc1`, 47 nM.
Turning to `NS(=O)(=O)c1ccc(C(=O)O)cc1` [CARZENIDE], the Ki in experiment [1] amounted to 887 nM. This Ki lies about 19-fold higher than the previous one.
On the same count and under the same terms, the result for `Nc1ccc(S(=O)(=O)NCc2ccc(S(N)(=O)=O)cc2)cc1` reads 55 nM.
Still for that read-out and setting: the result for `Cn1nc(S(N)(=O)=O)sc1=N` reads 740 nM.
With `Cc1ccc(S(N)(=O)=O)cc1` [P-TOLUENESULFONAMIDE], the Ki came out at 1580 nM in experiment [1] and 460 nM in experiment [2].
`NCc1ccc(S(N)(=O)=O)cc1` [MAFENIDE]: the affinity in experiment [1] corresponds to a Ki of 4800 nM. In other words, the single-digit micromolar range.
On the same count and under the same terms, the result for `NNc1ccccc1S(N)(=O)=O` reads 1090 nM; that for `Nc1ccc(S(=O)(=O)Nc2nnc(S(N)(=O)=O)s2)cc1`, 73 nM.
On the same count and under the same terms, the result for `Nc1ccc(S(N)(=O)=O)cc1` [SULFANILAMIDE] reads 941 nM.
Regarding `Nc1ccc(S(N)(=O)=O)cc1I`, the inhibitory constant (Ki) in experiment [1] came to 1020 nM.
`Nc1ccc(S(N)(=O)=O)cc1F` yielded a Ki in experiment [1] of 96 nM.
Same read-out and setting: the result for `Nc1ccc(S(N)(=O)=O)cc1Cl` reads 1100 nM; that for `NS(=O)(=O)c1ccc(CO)cc1`, 6680 nM.
